Test results from ChEMBL document CHEMBL5584297, “Cytotoxic Peptaibols from Trichoderma strigosum” (J Nat Prod, 2024).
The source made the active and inactive calls. No cut-off for these calls is given here. Square brackets hold non-standard residues; d marks the D form. Peptide text beside a SMILES is read from it. * marks the point of attachment. Leu(ol) = CC(C)C[C@H](N)CO; dIva = CC[C@@](C)(N)C(=O)O; Octanoyl = CCCCCCCC(=O)*; Aib = CC(C)(N)C(=O)O

Columns and labels:
MDA-MB-231 = assay: Antiproliferative activity against human MDA-MB-231 cells assessed as reduction in cell viability incubated for 24 hrs by MTT assay; format: functional, cell-based; conditions: MDA-MB-231, 24 h
SNU-449 = assay: Antiproliferative activity against human SNU-449 cells assessed as reduction in cell viability incubated for 24 hrs by MTT assay; format: functional, cell-based; conditions: SNU-449, 24 h
SK-OV-3 = assay: Antiproliferative activity against human SK-OV-3 cells assessed as reduction in cell viability incubated for 24 hrs by MTT assay; format: functional, cell-based; conditions: SK-OV-3, 24 h
DU-145 = assay: Antiproliferative activity against human DU-145 cells assessed as reduction in cell viability incubated for 24 hrs by MTT assay; format: functional, cell-based; conditions: DU-145, 24 h
HCT-116 = assay: Antiproliferative activity against human HCT-116 cells assessed as reduction in cell viability incubated for 24 hrs by MTT assay; format: functional, cell-based; conditions: HCT-116, 24 h
Fusarium oxysporum = assay: Antifungal activity against Fusarium oxysporum KCTC 16654; format: functional, organism-based
Candida albicans = assay: Antifungal activity against Candida albicans; format: functional, organism-based
[Candida] auris = Antifungal activity against Candida auris; format: functional, organism-based; conditions: Candidozyma auris

SMILES | IC50 (MDA-MB-231) | IC50 (SNU-449) | IC50 (SK-OV-3) | IC50 (DU-145) | IC50 (HCT-116) | Activity (Fusarium oxysporum) | Activity (Candida albicans) | Activity ([Candida] auris)
CC(=O)NC(C)(C)C(=O)N[C@@H](C)C(=O)NC(C)(C)C(=O)NC(C)(C)C(=O)N[C@@H](CC(C)C)C(=O)N[C@@H](CCC(N)=O)C(=O)NC(C)(C)C(=O)NC(C)(C)C(=O)NC(C)(C)C(=O)N[C@@H](CO)C(=O)N[C@H](C(=O)NC(C)(C)C(=O)N1CCC[C@H]1C(=O)N[C@H](C(=O)NC(C)(C)C(=O)NC(C)(C)C(=O)N[C@@H](CCC(N)=O)C(=O)N[C@@H](CCC(N)=O)C(=O)N[C@H](CO)CC(C)C)C(C)C)C(C)C (Ac-[Aib]A[Aib][Aib]LQ[Aib][Aib][Aib]SV[Aib]PV[Aib][Aib]QQ[Leu(ol)]) | 7.2 µM | 30.8 µM | 11.9 µM | 12 µM | 8.7 µM | inactive | inactive | inactive
CC(=O)NC(C)(C)C(=O)N[C@@H](CO)C(=O)NC(C)(C)C(=O)NC(C)(C)C(=O)N[C@@H](CC(C)C)C(=O)N[C@@H](CCC(N)=O)C(=O)NC(C)(C)C(=O)NC(C)(C)C(=O)NC(C)(C)C(=O)N[C@@H](CO)C(=O)N[C@H](C(=O)NC(C)(C)C(=O)N1CCC[C@H]1C(=O)N[C@H](C(=O)NC(C)(C)C(=O)NC(C)(C)C(=O)N[C@@H](CCC(N)=O)C(=O)N[C@@H](CCC(N)=O)C(=O)N[C@H](CO)CC(C)C)C(C)C)C(C)C (Ac-[Aib]S[Aib][Aib]LQ[Aib][Aib][Aib]SV[Aib]PV[Aib][Aib]QQ[Leu(ol)]) | 80.2 µM | 131 µM | 41.1 µM | 30.9 µM | 32.8 µM | inactive | inactive | inactive
CCCCCCCC(=O)NCC(=O)N[C@@H](C)C(=O)N[C@@H](CC(C)C)C(=O)NC(C)(C)C(=O)N[C@@H](C)C(=O)N[C@H](C(=O)N[C@H](CO)CC(C)C)[C@@H](C)CC (Octanoyl-GAL[Aib]AI[Leu(ol)]) | 17.6 µM | > 150 µM | 18.7 µM | 25.4 µM | 27.4 µM | inactive | inactive | inactive
CCCCCCCC(=O)NCC(=O)N[C@@H](C)C(=O)N[C@H](C(=O)N[C@](C)(CC)C(=O)N[C@@H](C)C(=O)N[C@@H](CC(C)C)C(=O)N[C@H](CO)CC(C)C)C(C)C | 11.5 µM | 39 µM | 47 µM | 15.1 µM | 8.9 µM | inactive | inactive | inactive
CC[C@H](C)[C@H](NC(=O)C(C)(C)NC(=O)C(C)(C)NC(=O)[C@H](C)NC(=O)C(C)(C)NC(C)=O)C(=O)N[C@@H](CCC(N)=O)C(=O)NC(C)(C)C(=O)NC(C)(C)C(=O)NC(C)(C)C(=O)N[C@@H](CO)C(=O)N[C@H](C(=O)NC(C)(C)C(=O)N1CCC[C@H]1C(=O)N[C@H](C(=O)NC(C)(C)C(=O)NC(C)(C)C(=O)N[C@@H](CCC(N)=O)C(=O)N[C@@H](CCC(N)=O)C(=O)N[C@H](CO)CC(C)C)C(C)C)C(C)C (Ac-[Aib]A[Aib][Aib]IQ[Aib][Aib][Aib]SV[Aib]PV[Aib][Aib]QQ[Leu(ol)]) | 8.7 µM | > 150 µM | 26.7 µM | 12.2 µM | 9 µM | inactive | inactive | inactive
CCCCCCCC(=O)NCC(=O)N[C@@H](C)C(=O)N[C@@H](CC(C)C)C(=O)N[C@](C)(CC)C(=O)N[C@@H](C)C(=O)N[C@@H](CC(C)C)C(=O)N[C@H](CO)CC(C)C | 18.5 µM | 222 µM | 50.3 µM | 18.2 µM | 37.9 µM | inactive | inactive | inactive
COc1cccc2c1C(=O)c1c(O)c3c(c(O)c1C2=O)C[C@@](O)(C(=O)CO)C[C@@H]3O[C@H]1C[C@H](N)[C@H](O)[C@H](C)O1 [DOXORUBICIN] |  | 71.4 µM | 88.4 µM | 91.2 µM | 73.6 µM | inactive | inactive | inactive
CCCCCCCC(=O)NCC(=O)N[C@@H](C)C(=O)N[C@H](C(=O)NC(C)(C)C(=O)N[C@@H](C)C(=O)N[C@@H](CC(C)C)C(=O)N[C@H](CO)CC(C)C)C(C)C (Octanoyl-GAV[Aib]AL[Leu(ol)]) | 25.7 µM | > 150 µM | 60.7 µM | 31.8 µM | > 150 µM | inactive | inactive | inactive

These reach a lower IC50 (SNU-449). Values come first.

IC50 (MDA-MB-231) | IC50 (SNU-449) | IC50 (SK-OV-3) | IC50 (DU-145) | IC50 (HCT-116) | SMILES | Activity (Fusarium oxysporum) | Activity (Candida albicans) | Activity ([Candida] auris)
2.5 µM | 13 µM | 12.4 µM | 3.3 µM | 4.4 µM | CC(=O)NC(C)(C)C(=O)N[C@@H](CO)C(=O)NC(C)(C)C(=O)NC(C)(C)C(=O)N[C@@H](CC(C)C)C(=O)N[C@@H](CCC(N)=O)C(=O)NC(C)(C)C(=O)NC(C)(C)C(=O)NC(C)(C)C(=O)N[C@@H](CO)C(=O)N[C@@H](CC(C)C)C(=O)NC(C)(C)C(=O)N1CCC[C@H]1C(=O)N[C@H](C(=O)NC(C)(C)C(=O)NC(C)(C)C(=O)N[C@@H](CCC(N)=O)C(=O)N[C@@H](CCC(N)=O)C(=O)N[C@H](CO)CC(C)C)C(C)C (Ac-[Aib]S[Aib][Aib]LQ[Aib][Aib][Aib]SL[Aib]PV[Aib][Aib]QQ[Leu(ol)]) | inactive | inactive | inactive
4.5 µM | 8.8 µM | 6.3 µM | 4.5 µM | 8 µM | CCCCCCCC(=O)NCC(=O)N[C@@H](C)C(=O)N[C@@H](CC(C)C)C(=O)N[C@](C)(CC)C(=O)N[C@@H](C)C(=O)N[C@H](C(=O)N[C@H](CO)CC(C)C)[C@@H](C)CC (Octanoyl-GAL[dIva]AI[Leu(ol)]) | inactive | inactive | inactive
2.3 µM | 10.4 µM | 4.1 µM | 4.4 µM | 3.7 µM | CC(=O)NC(C)(C)C(=O)N[C@@H](C)C(=O)NC(C)(C)C(=O)NC(C)(C)C(=O)N[C@@H](CC(C)C)C(=O)N[C@@H](CCC(N)=O)C(=O)NC(C)(C)C(=O)NC(C)(C)C(=O)NC(C)(C)C(=O)N[C@@H](CO)C(=O)N[C@@H](CC(C)C)C(=O)NC(C)(C)C(=O)N1CCC[C@H]1C(=O)N[C@H](C(=O)NC(C)(C)C(=O)NC(C)(C)C(=O)N[C@@H](CCC(N)=O)C(=O)N[C@@H](CCC(N)=O)C(=O)N[C@H](CO)CC(C)C)C(C)C (Ac-[Aib]A[Aib][Aib]LQ[Aib][Aib][Aib]SL[Aib]PV[Aib][Aib]QQ[Leu(ol)]) | inactive | inactive | inactive
7.3 µM | 17.3 µM | 12.5 µM | 13 µM | 12 µM | CCCCCCCC(=O)NCC(=O)N[C@@H](C)C(=O)N[C@@H](CC(C)C)C(=O)NC(C)(C)C(=O)N[C@@H](C)C(=O)N[C@@H](CC(C)C)C(=O)N[C@H](CO)CC(C)C (Octanoyl-GAL[Aib]AL[Leu(ol)]) | inactive | inactive | inactive
2.3 µM | 5.7 µM | 3.8 µM | 2.1 µM | 3.2 µM | CC[C@H](C)[C@H](NC(=O)C(C)(C)NC(=O)C(C)(C)NC(=O)[C@H](C)NC(=O)C(C)(C)NC(C)=O)C(=O)N[C@@H](CCC(N)=O)C(=O)NC(C)(C)C(=O)NC(C)(C)C(=O)NC(C)(C)C(=O)N[C@@H](CO)C(=O)N[C@@H](CC(C)C)C(=O)NC(C)(C)C(=O)N1CCC[C@H]1C(=O)N[C@H](C(=O)NC(C)(C)C(=O)NC(C)(C)C(=O)N[C@@H](CCC(N)=O)C(=O)N[C@@H](CCC(N)=O)C(=O)N[C@H](CO)CC(C)C)C(C)C (Ac-[Aib]A[Aib][Aib]IQ[Aib][Aib][Aib]SL[Aib]PV[Aib][Aib]QQ[Leu(ol)]) | inactive | inactive | inactive
1 µM | 11.3 µM | 2.4 µM | 2 µM | 4.3 µM | CC[C@H](C)[C@H](NC(=O)C(C)(C)NC(=O)C(C)(C)NC(=O)[C@H](CO)NC(=O)C(C)(C)NC(C)=O)C(=O)N[C@@H](CCC(N)=O)C(=O)NC(C)(C)C(=O)NC(C)(C)C(=O)NC(C)(C)C(=O)N[C@@H](CO)C(=O)N[C@@H](CC(C)C)C(=O)NC(C)(C)C(=O)N1CCC[C@H]1C(=O)N[C@H](C(=O)NC(C)(C)C(=O)NC(C)(C)C(=O)N[C@@H](CCC(N)=O)C(=O)N[C@@H](CCC(N)=O)C(=O)N[C@H](CO)CC(C)C)C(C)C (Ac-[Aib]S[Aib][Aib]IQ[Aib][Aib][Aib]SL[Aib]PV[Aib][Aib]QQ[Leu(ol)]) | inactive | inactive | inactive
